According to patent US20090286797A1, “Novel Quinoxaline Derivatives and Their Medical Use” (priority 2005, published 2009):

Target: T1, human glutamate receptor GluR1-flip (Homo sapiens, UniProt P42261)
T1 construct: expressed in transfected cells; host or cells: Chinese Hamster Ovary (CHO) cells
Assay: Whole cell patch clamp on CHO cells expressing human GluR1-flip; glutamate-induced current desensitization
Assay type: cell-based
Conditions: 1 mM test compound co-applied with 10 mM L-glutamate after 30 seconds pre-incubation, hGluR1(i), whole cell voltage clamp
Source text: In this experiment we investigated the influence of the test compounds on the membrane currents when determined electrophysiologically on Chinese Hamster Ovary (CHO) cells capable of expressing the human glutamate receptor GluR1-flip, obtained essentially as described by Fletcher E J & Lodge D, Pharmacol. Ther. 1996 70 (1) 65-89, the current through the channels being recorded using patch clamp technique in whole cell voltage clamp mode.
Current responses were induced by applying L-glutamate at a saturating concentration of 10 mM, and the modulatory effect of the test compound was evaluated by co-applying the test compound and L-glutamate upon a 30 seconds pre-incubation period, and comparing with […].

T1 sequence (P42261 19-906 isoform P42261-2 limits assumed): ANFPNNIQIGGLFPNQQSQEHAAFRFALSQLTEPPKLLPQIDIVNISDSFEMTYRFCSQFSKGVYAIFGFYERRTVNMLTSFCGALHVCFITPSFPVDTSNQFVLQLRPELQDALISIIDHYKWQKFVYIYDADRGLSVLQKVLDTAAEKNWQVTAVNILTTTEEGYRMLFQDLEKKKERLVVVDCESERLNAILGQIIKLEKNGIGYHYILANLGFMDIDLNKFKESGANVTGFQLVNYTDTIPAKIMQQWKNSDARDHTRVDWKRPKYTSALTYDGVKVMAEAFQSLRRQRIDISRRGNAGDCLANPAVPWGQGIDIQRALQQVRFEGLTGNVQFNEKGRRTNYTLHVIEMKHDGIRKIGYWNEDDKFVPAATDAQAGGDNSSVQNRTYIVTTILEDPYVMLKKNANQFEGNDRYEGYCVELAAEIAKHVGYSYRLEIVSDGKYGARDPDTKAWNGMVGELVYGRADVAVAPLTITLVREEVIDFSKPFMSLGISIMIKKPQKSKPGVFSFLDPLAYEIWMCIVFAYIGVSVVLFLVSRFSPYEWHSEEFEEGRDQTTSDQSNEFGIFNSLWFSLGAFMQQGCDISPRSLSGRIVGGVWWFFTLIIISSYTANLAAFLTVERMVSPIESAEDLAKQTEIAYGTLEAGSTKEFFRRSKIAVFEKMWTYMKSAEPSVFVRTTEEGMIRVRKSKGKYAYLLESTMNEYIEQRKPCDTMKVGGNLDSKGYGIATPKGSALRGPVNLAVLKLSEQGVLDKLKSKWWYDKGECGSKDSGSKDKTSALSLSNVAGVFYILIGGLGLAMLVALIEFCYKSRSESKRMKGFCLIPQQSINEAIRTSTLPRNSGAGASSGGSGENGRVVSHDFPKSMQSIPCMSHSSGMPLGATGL

CC1CCCN(C(=O)c2ccc3nccnc3c2)C1 (racemic) [Compound A4, (±)-(3-Methyl-piperidin-1-yl)-guinoxalin-6-yl-methanone] was tested, and the degree of desensitization was 95.2+/−0.2%.

O=C(c1ccc2nccnc2c1)N1CCCCC1 [Reference compound, Piperidin-1-yl-quinoxalin-6-yl-methanone] was tested, and the degree of desensitization was 98.0+/−0.8%.
